Test results taken from US20260364184A1, “COMPOUND BASED ON OXOISOINDOLINYL-SUBSTITUTED TETRAHYDROPYRIMIDINE-DIONE AND USE THEREOF” (GLUETACS THERAPEUTICS (SHANGHAI) CO., LTD., priority 2023, published 2026).

Assays:
Format in all cases: cell-based
[1] = tested on: Human myeloid monocytic leukemia cell line (MV-4-11); assay: Inhibition of MV-4-11 cell proliferation (CellTiter luminescent viability); settings: Homo sapiens, MV4-11, Table IG2, FAK inhibitor-based, 96 hours; for inhibition at 0.01 µM: MV-4-11, 10 nM, read-out: Inhibition Rate at 10 nM (%); for inhibition at 0.5 µM: MV-4-11, 500 nM, read-out: Inhibition Rate at 500 nM (%)
Procedure, shortened: (§1)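 IC50 is fitted from luminescent viability (CellTiter-Meiluncell) curves. Nine-point, 5-fold dilution series (top stock 2000 μM) are added at 0.5 μL per 100 μL medium to cells plated the day before, with growth at 37 °C and 5% CO2.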

FAK = molecular target: T1, FAK (Homo sapiens, UniProt Q05397); assay: Western blot degradation of FAK; settings: A549 Cell; 24 hours
T1 construct: expression of target proteins in cells; endogenous in cells
T1 sequence (Q05397 whole entry): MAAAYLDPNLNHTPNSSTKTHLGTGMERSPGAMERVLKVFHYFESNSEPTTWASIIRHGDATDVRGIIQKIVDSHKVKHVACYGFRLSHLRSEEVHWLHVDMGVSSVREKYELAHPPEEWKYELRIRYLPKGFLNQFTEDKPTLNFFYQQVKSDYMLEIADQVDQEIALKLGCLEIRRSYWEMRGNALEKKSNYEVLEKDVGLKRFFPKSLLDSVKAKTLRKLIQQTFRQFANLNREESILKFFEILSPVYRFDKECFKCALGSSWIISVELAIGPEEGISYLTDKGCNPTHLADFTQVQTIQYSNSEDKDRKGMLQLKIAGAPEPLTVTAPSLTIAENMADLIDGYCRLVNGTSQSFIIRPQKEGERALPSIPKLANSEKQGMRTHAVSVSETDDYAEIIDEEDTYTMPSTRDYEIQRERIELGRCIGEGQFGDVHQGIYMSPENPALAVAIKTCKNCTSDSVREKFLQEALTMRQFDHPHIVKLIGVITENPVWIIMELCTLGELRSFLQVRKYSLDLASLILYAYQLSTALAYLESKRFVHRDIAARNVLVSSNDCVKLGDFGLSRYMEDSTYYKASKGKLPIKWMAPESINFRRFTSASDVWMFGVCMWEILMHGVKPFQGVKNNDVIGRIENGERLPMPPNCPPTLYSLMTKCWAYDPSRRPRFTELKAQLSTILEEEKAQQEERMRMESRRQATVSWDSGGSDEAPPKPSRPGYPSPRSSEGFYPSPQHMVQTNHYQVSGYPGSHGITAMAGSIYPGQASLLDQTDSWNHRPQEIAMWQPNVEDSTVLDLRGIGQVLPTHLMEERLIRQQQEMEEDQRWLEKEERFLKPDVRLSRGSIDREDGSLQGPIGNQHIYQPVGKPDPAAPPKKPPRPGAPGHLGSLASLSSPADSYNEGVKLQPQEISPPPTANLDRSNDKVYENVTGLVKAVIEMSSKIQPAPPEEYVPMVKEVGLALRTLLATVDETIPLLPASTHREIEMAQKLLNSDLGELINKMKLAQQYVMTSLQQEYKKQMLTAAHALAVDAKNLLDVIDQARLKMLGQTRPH
Protocol: (§2) Conventional Western blot assay was performed to evaluate the effects of the compounds of the present disclosure on the expression of target proteins in cells.
(§3) (1) Cell Seeding and Protein Harvesting: The selected cells were processed according to the cell seeding procedure and protein harvesting procedure in Table II-2.
(§4) (2) To the collected supernatant, 5×SDS sample loading buffer was added, followed by denaturation at 95 °C for 5 minutes. The denatured samples were then separated by SDS-PAGE electrophoresis on a polyacrylamide gel. Proteins were transferred to a nitrocellulose membrane (0.45 μm NC membrane), blocked with blocking buffer at room temperature for 1 hour, and subjected to antibody incubation and development procedures according to the antibody manufacturer's instructions (Cell Signaling Technology).
(§5) Half-Maximal Degradation Concentration value (the drug concentration required for degrading proteins by 50%, abbreviated as DC50) reads method: comparing the grayscale values of Western blot bands from drug-treated samples with those from blank DMSO-treated controls, and identifying the drug concentration range at which the grayscale value is half that of the DMSO-treated control bands.
(§6) DC50 values can be calculated using ImageJ software to measure grayscale values of Western blot bands from drug-treated samples. The concentration-response curve is fitted to estimate the drug concentration corresponding to half the grayscale value.
(§7) Target protein remaining (%) refers to the percentage of target protein remaining in cells after treatment with protein degrader compounds.
(§8) Calculation method for target protein remaining (%): Use ImageJ software to measure grayscale values of Western blot bands from drug (protein degrader)-treated samples. The grayscale value of drug-treated bands is divided by that of internal control protein bands, and the resulting quotient is normalized to obtain the relative percentage of remaining target protein after protein degrader treatment.
(§9) Target protein degradation rate (%)=1−target protein remaining (%).

[2] = tested on: Human Multiple myeloma cell line (MM.1S); assay: Inhibition of MM.1S cell proliferation (CellTiter luminescent viability); settings: Homo sapiens, MM1.S, Table IG1, FAK inhibitor-based, 96 hours; for inhibition at 0.01 µM: 10 nM, read-out: Inhibition Rate at 10 nM (%); for inhibition at 0.5 µM: 500 nM, read-out: Inhibition Rate at 500 nM (%)
Procedure, shortened: as §1

[3] = tested on: Human breast cancer cell line (MDA-MB-231); assay: Inhibition of MDA-MB-231 cell proliferation (CellTiter luminescent viability); settings: Table IG3, FAK inhibitor-based, 96 hours; for inhibition at 0.01 µM: MDA-MB-231, 10 nM, read-out: Inhibition Rate at 10 nM (%); for inhibition at 0.5 µM: MDA-MB-231, 500 nM, read-out: Inhibition Rate at 500 nM (%)
Protocol: The tumor cells used herein were cultured in a cell culture medium listed in table 3 at 37 °C in an incubator with 5% CO2. Prior to experimentation, all cell lines used were correctly identified by STR profiling, and tested negative for mycoplasma contamination using a mycoplasma detection kit through routine screenings.
The IC50 values of the compounds of the present disclosure (including the compounds in Table 1, Table 2, and Examples 1-468) were determined using the CellTiter-Meiluncell Luminescent Cell Viability Assay Kit from Dalian Meilun Biotech Co., Ltd. The detailed procedure is as follows: Tumor cells were seeded in 96-well cell culture plates at the densities specified in Table 4. On the following day, the test compounds of the present disclosure were subjected to serial dilution. The dilution can be performed according to one of the following two methods: • (1) The first dilution method: The test compounds of the present disclosure (including the compounds in Table 1, Table 2, and Examples 1-468) were subjected to 5-fold serial dilutions starting from a highest concentration of 2000 μM, resulting in a total of 9 concentrations from high to low (2000, 400, 80, 16, 3.2, 0.64, 0.128, 0.0256, 0.00512 μM). Subsequently, 0.5 μL of the test compound dilution was transferred into the 96-well plate containing the cells, with each well containing 100 μL of cell culture medium. […] Into the 96-well plate, the diluted test compounds and corresponding detection reagents were added, resulting in final test compound concentrations of 500 nM and 10 nM, respectively. The experimental procedure is described below using the diluted 2 μM test compound as an example.
0.5 μL of the aforementioned diluted compound of the present disclosure (including the compounds in Table 1, Table 2, and Examples 1-468) was added to the seeded cells in 100 μL of medium, yielding a final test compound concentration of 10 nM. After the cells were treated with the compounds of the present disclosure for a specified period, the cell viability assay reagent was added to the culture medium according to the kit's instructions to determine cell viability. […] All controls were treated using the same procedure as the compounds of the present disclosure. The growth inhibition curves for the compounds of the present disclosure were plotted using Prism GraphPad software, and the IC50 values were calculated therefrom.

EZH2 = molecular target: T2, EZH2 (Homo sapiens, UniProt Q15910+Q96SW2); assay: Western blot degradation of EZH2; settings: hPBMC Cell; 24 hours
T2 construct: expression of target proteins in cells; endogenous in cells
T2 sequence (Q15910 whole entry): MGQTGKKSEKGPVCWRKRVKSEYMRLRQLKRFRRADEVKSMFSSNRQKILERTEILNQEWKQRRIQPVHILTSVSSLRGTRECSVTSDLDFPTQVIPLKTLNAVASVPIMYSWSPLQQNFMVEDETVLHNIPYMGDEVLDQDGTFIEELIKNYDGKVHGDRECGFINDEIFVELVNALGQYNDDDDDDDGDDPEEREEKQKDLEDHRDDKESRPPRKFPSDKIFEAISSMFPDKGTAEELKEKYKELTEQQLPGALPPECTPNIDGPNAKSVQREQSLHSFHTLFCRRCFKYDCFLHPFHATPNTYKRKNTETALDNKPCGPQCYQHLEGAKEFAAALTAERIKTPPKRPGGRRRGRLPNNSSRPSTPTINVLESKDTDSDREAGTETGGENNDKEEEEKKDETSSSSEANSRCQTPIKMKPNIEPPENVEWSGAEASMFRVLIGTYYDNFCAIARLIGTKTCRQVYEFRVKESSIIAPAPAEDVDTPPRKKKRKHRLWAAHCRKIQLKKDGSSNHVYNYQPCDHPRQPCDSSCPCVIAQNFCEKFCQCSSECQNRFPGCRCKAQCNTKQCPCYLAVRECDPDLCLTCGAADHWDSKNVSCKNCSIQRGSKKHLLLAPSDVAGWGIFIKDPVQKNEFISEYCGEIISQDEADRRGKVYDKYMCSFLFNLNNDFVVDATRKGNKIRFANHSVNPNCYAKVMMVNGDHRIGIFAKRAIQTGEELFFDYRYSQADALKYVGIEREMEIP
T2 sequence (O75530 whole entry partner): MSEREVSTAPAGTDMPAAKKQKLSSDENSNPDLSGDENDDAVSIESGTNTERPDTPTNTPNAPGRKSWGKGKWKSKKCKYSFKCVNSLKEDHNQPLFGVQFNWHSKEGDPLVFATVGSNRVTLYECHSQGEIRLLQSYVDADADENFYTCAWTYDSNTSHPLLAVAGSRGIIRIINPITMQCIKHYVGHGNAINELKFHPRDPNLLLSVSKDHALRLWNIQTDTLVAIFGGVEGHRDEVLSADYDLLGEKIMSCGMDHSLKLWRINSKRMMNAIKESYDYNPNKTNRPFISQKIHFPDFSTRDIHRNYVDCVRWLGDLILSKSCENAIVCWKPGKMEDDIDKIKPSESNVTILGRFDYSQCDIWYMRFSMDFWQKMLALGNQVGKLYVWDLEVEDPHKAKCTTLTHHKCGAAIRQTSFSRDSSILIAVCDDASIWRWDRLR
T2 sequence (Q15022 whole entry partner): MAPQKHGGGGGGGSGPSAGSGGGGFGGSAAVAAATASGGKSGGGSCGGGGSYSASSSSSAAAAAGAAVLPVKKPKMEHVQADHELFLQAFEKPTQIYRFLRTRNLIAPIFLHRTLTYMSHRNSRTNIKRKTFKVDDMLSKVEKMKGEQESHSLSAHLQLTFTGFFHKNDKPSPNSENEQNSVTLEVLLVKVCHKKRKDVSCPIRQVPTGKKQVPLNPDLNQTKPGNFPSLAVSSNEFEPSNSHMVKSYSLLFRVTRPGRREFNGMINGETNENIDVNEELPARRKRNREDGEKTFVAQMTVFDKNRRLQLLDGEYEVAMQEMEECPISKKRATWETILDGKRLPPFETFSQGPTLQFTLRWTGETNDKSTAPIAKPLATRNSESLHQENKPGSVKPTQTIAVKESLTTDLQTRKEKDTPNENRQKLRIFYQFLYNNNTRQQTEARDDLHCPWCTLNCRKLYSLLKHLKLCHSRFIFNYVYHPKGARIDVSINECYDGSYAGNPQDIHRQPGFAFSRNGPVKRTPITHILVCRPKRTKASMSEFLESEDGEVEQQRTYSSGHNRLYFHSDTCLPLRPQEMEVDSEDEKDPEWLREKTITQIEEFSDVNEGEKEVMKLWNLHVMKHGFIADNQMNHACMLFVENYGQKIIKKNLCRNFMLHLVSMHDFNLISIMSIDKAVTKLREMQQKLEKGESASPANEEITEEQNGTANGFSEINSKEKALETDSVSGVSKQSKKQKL
T2 sequence (Q96SW2 whole entry): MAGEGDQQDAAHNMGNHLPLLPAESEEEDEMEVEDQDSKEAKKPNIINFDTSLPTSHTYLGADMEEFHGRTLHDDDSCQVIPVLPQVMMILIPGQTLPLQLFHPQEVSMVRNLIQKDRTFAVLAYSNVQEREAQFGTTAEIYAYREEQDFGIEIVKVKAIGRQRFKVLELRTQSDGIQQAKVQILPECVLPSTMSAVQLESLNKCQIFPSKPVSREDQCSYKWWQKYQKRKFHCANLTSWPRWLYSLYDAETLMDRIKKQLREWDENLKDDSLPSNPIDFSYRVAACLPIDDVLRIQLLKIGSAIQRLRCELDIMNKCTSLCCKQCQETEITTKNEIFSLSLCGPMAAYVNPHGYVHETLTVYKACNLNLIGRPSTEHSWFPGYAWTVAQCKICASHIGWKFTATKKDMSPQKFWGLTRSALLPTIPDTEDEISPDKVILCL
T2 sequence (Q16531 whole entry partner): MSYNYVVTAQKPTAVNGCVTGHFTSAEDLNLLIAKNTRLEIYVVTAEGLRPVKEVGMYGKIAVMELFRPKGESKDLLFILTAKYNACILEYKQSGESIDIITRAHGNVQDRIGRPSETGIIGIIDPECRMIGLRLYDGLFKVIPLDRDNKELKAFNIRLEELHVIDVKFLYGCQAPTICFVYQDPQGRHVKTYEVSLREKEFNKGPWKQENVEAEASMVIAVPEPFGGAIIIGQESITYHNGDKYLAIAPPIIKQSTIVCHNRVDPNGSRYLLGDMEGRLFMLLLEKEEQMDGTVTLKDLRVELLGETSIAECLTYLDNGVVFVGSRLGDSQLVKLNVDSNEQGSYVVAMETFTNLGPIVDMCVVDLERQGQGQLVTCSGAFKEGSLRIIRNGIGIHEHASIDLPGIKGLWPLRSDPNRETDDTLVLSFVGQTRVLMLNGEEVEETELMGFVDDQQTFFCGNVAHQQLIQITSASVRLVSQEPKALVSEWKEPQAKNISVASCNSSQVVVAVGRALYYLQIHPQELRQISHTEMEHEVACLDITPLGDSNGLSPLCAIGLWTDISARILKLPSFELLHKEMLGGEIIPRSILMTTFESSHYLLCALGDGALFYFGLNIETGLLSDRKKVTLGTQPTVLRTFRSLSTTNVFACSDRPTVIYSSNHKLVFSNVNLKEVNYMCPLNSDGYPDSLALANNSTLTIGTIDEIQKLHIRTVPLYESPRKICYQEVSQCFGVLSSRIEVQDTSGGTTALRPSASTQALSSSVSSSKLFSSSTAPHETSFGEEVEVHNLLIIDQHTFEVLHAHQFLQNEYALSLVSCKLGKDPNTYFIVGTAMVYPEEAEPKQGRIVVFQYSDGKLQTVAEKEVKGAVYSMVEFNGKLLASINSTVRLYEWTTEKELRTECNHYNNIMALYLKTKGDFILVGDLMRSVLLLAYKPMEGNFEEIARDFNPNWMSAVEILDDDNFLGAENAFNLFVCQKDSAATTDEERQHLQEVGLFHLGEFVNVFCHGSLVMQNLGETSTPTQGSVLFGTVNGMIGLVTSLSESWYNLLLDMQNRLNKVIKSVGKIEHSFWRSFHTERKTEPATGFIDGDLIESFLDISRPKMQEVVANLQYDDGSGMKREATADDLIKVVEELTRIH
Protocol: as §2, §3, §4, §5, §6, §7, §8, §9

SMILES | inhibition at 0.01 µM [1] | inhibition at 0.5 µM [1] | Degradation of substrate protein FAK (substrate protein remaining %) (FAK) | inhibition at 0.01 µM [2] | inhibition at 0.5 µM [2] | inhibition at 0.01 µM [3] | inhibition at 0.5 µM [3] | Degradation of substrate protein EZH2 (substrate protein remaining %) (EZH2)
CNC(=O)c1ccccc1Nc1cc(Nc2ccc(N3CCC(N(C)Cc4ccc5c(c4)CN(N4CCC(=O)NC4=O)C5=O)CC3)cc2OC)ncc1C(F)(F)F [GT-07647, 2-((2-((4-(4-(((2-(2,4-dioxotetrahydropyrimidin-1(2H)-yl)-1-oxoisoindolin-5-yl)methyl)(methyl)amino)piperidin-1-yl)-2-methoxyphenyl)amino)-5-(trifluoromethyl)pyridin-4-yl)amino)-N-methylbenzamide] | 40 to 50% | 80 to 100% | A (0%≤substrate protein remaining %≤80%) | 20 to 30% | 40 to 60% | 40 to 50% | 70 to 80% | –
CCCc1cc(C)[nH]c(=O)c1CNC(=O)c1cc(-c2ccc(N3CCN(Cc4ccc5c(c4)CN(N4CCC(=O)NC4=O)C5=O)CC3)nc2)cc2c1cnn2C(C)C [GT-08418, 6-(6-(4-((2-(2,4-dioxotetrahydropyrimidin-1(2H)-yl)-1-oxoisoindolin-5-yl)methyl)piperazin-1-yl)pyridin-3-yl)-1-isopropyl-N-((6-methyl-2-oxo-4-propyl-1,2-dihydropyridin-3-yl)methyl)-1H-indazole-4-carboxamide] | – | – | – | – | – | – | – | A (0%≤substrate protein remaining %≤80%)
CN(c1nccnc1CNc1nc(Nc2ccc(N3CCN(CC4CCN(c5ccc6c(c5)C(=O)N(N5CCC(=O)NC5=O)C6=O)CC4)CC3)cc2)ncc1C(F)(F)F)S(C)(=O)=O [GT-07468, N-(3-(((2-((4-(4-((1-(2-(2,4-dioxotetrahydropyrimidin-1(2H)-yl)-1,3-dioxoisoindolin-5-yl)piperidin-4-yl)methyl)piperazin-1-yl)phenyl)amino)-5-(trifluoromethyl)pyrimidin-4-yl)amino)methyl)pyrazin-2-yl)-N-methylmethanesulfonamide] | 30 to 40% | 80 to 100% | A (0%≤substrate protein remaining %≤80%) | 20 to 30% | 80 to 100% | 20 to 30% | 50 to 60% | –
CCCc1cc(C)[nH]c(=O)c1CNC(=O)c1cc(-c2ccc(N3CCN(Cc4ccc5c(c4)C(=O)N(N4CCC(=O)NC4=O)C5=O)CC3)nc2)cc2c1cnn2C(C)C [GT-08419, 6-(6-(4-((2-(2,4-dioxotetrahydropyrimidin-1(2H)-yl)-1,3-dioxoisoindolin-5-yl)methyl)piperazin-1-yl)pyridin-3-yl)-1-isopropyl-N-((6-methyl-2-oxo-4-propyl-1,2-dihydropyridin-3-yl)methyl)-1H-indazole-4-carboxamide] | – | – | – | – | – | – | – | A (0%≤substrate protein remaining %≤80%)
CCCc1cc(C)[nH]c(=O)c1CNC(=O)c1cc(-c2ccc(N3CCC(N(C)Cc4ccc5c(c4)CN(N4CCC(=O)NC4=O)C5=O)CC3)nc2)cc2c1cnn2C(C)C [GT-08420, 6-(6-(4-(((2-(2,4-dioxotetrahydropyrimidin-1(2H)-yl)-1-oxoisoindolin-5-yl)methyl)(methyl)amino)piperidin-1-yl)pyridin-3-yl)-1-isopropyl-N-((6-methyl-2-oxo-4-propyl-1,2-dihydropyridin-3-yl)methyl)-1H-indazole-4-carboxamide] | – | – | – | – | – | – | – | A (0%≤substrate protein remaining %≤80%)
CCN(c1cc(-c2ccc(N3CCN(C4CCN(CC5CCN(c6cccc7c6C(=O)N(N6CCC(=O)NC6=O)C7=O)CC5)CC4)CC3)cc2)cc(C(=O)NCc2c(C)cc(C)[nH]c2=O)c1C)C1CCOCC1 [GT-08525, N-((4,6-dimethyl-2-oxo-1,2-dihydropyridin-3-yl)methyl)-4′-(4-(1-((1-(2-(2,4-dioxotetrahydropyrimidin-1(2H)-yl)-1,3-dioxoisoindolin-4-yl)piperidin-4-yl)methyl)piperidin-4-yl)piperazin-1-yl)-5-(ethyl(tetrahydro-2H-pyran-4-yl)amino)-4-methyl-[1,1′-biphenyl]-3-carboxamide] | – | – | – | – | – | – | – | A (0%≤substrate protein remaining %≤80%)
